Format in all cases: in vivo, NMRI nu/nu female mice
Assay [1] deals with NYH cells (small cell lung cancer). Description: Tumour growth in nude mice inoculated with NYH cells. Particulars: NYH tumours, 14 days. As for the experimental part:
(§1) The experiments were conducted with NMRI nu/nu female mice (M&B, Ry, Denmark) kept under semi-sterile conditions. The mice were 6 weeks old on arrival, and they were allowed to acclimatise for approximately 3 weeks before the experiments were initiated. The bedding was autoclaved at 121° C. for 20 minutes, the food was sterilised by irradiation, and the drinking water was filtered through a 0.2 μm filter. All handling of the mice was done in laminar flow benches.
Each experiment employed 40-60 mice which were inoculated in both flanks and left for the tumours to develop. Following that, the mice were divided into groups, each containing 10 mice and thus 18-20 tumors, according to the size of the tumour, i.e. large, medium or small. Unless stated otherwise all doses have been given daily.
(§2) The tumours were measured using digital callipers before treatment start (=baseline), twice weekly for the duration of the study, and at the end of the study. Tumour area (A) was calculated as the product of the two measured perpendicular diameters; A=d1×d2. For mice with only one tumour, the area of this tumour was calculated and used in the statistical analysis. For mice with two tumours, the average of the two tumour areas was calculated and used in the statistical analysis.
For each animal, an individual curve of the tumour areas observed during the study was plotted against time. The trend was an increasing growth rate of the tumours. In order to ensure an approximate linear correspondence between tumour data and time, the observations were transformed by taking the square root of the tumour areas, corresponding to tumour size in one dimension. As a summary measure of the repeated measurements of tumour areas during the study (tumour growth rate), the estimated slope of the individual curves of the square root transformed curves was used [Matthews, Br. Med. J., 300, 230-235, 1990]. The slope should be interpreted as a measure of the tumour growth rate and was estimated using linear regression analysis by time on the observations during the study. Within each group, the mean of the tumour growth rate was calculated.
The NYH cell line originates from a patient with small cell lung cancer. The cell line was obtained from Rigshospitalet, Copenhagen, Denmark.
The mice were inoculated with 1×10^7 NYH cells in 0.2 ml in each flank, and the tumours were left to grow for approximately 4 days. The duration of the dosing was 14 days.

Assay [2] relates to HT 1080 cells (human fibrosarcoma). As to the kind of experiment: Tumour growth in nude mice inoculated with HT 1080 cells. To be noted: HT 1080 tumours, 14 days. How it is done: The experiments were conducted with NMRI nu/nu female mice (M&B, Ry, Denmark) kept under semi-sterile conditions. The mice were 6 weeks old on arrival, and they were allowed to acclimatise for approximately 3 weeks before the experiments were initiated. The bedding was autoclaved at 121° C. for 20 minutes, the food was sterilised by irradiation, and the drinking water was filtered through a 0.2 μm filter. All handling of the mice was done in laminar flow benches. Each experiment employed 40-60 mice which were inoculated in both flanks and left for the tumours to develop. Following that, the mice were divided into groups, each containing 10 mice and thus 18-20 tumors, according to the size of the tumour, i.e. large, medium or small. Unless stated otherwise all doses have been given daily. The tumours were measured using digital callipers before treatment start (=baseline), twice weekly for the duration of the study, and at the end of the study. Tumour area (A) was calculated as the product of the two measured perpendicular diameters; […] For mice with only one tumour, the area of this tumour was calculated and used in the statistical analysis. For mice with two tumours, the average of the two tumour areas was calculated and used in the statistical analysis. For each animal, an individual curve of the tumour areas observed during the study was plotted against time. The trend was an increasing growth rate of the tumours. In order to ensure an approximate linear correspondence between tumour data and time, the observations were transformed by taking the square root of the tumour areas, corresponding to tumour size in one dimension. As a summary measure of the repeated measurements of tumour areas during the study (tumour growth rate), the estimated slope of the individual curves of the square root transformed curves was used [Matthews, Br. Med. […] The slope should be interpreted as a measure of the tumour growth rate and was estimated using linear regression analysis by time on the observations during the study. Within each group, the mean of the tumour growth rate was calculated. The HT 1080 cell line originates from a patient with human fibrosarcoma, and it was obtained from ATCC. The mice were inoculated with 2×10^6 HT 1080 cells in 0.2 ml in each flank, and the tumours were left to grow for approximately 4 days.

The subject of assay [3] is Colo 320 DM cells (human colon cancer). As to the kind of experiment: Tumour growth in nude mice inoculated with Colo 320 DM cells. To be noted: Colo 320 DM tumours, 21 days, control 0.55. How it is done:
as §1
Each experiment employed 40-60 mice which were inoculated in both flanks and left for the tumours to develop. Following that, the mice were divided into groups, each containing 10 mice and thus 18-20 tumors, according to the size of the tumour, i.e. large, medium or small. […]
as §2
For each animal, an individual curve of the tumour areas observed during the study was plotted against time. […] Within each group, the mean of the tumour growth rate was calculated. […]

The structures appear in SMILES notation.

As for `N.N.[Cl][Pt][Cl]` [Cisplatin], the Mean increment/day in assay [1] (cisplatin 5 mg/kg i.p. once weekly, control 0.90) is reported as 0.32 mm/day.

For the compound `N#CNC(=Nc1ccncc1)NCCCCCCOc1ccc(Cl)cc1` [Compound A, N-cyano-N′-(6-(4-chlorophenoxy)hexyl)-N″(4-pyridyl)guanidine], the Mean increment/day turned out to be 0.14 mm/day in assay [2] (compound A 50 mg/kg p.o. daily, TNP-470 experiment, control 0.73); 0.21 mm/day in assay [2] (compound A 50 mg/kg p.o. daily, etoposide experiment, control 0.45); 0.30 mm/day in assay [2] (compound A 50 mg/kg p.o. daily, paclitaxel experiment, control 0.67); 0.24 mm/day in assay [2] (compound A 50 mg/kg p.o. daily, seocalcitol experiment, control 0.98); 0.22 mm/day in assay [3] (compound A 50 mg/kg p.o. daily); 0.02 mm/day in assay [1] (compound A 15 mg/kg p.o. daily, cisplatin experiment, control 0.90). For the same compound, the Mean increment/day in assay [1] (compound A 15 mg/kg p.o. daily, cyclophosphamide experiment, control 0.61) stood at 0.26 mm/day; in assay [1] (compound A 15 mg/kg p.o. daily, etoposide experiment, control 0.67), 0.34 mm/day.

Turning to `O=P1(N(CCCl)CCCl)NCCCO1` (centres unmarked) [Cyclophosphamide], in assay [1] (cyclophosphamide 7 mg/kg p.o. daily, control 0.61), the Mean increment/day amounted to 0.40 mm/day.

Take `COc1cc([C@@H]2c3cc4c(cc3[C@@H](O[C@@H]3O[C@@H]5CO[C@@H](C)O[C@H]5[C@H](O)[C@H]3O)[C@H]3COC(=O)[C@H]23)OCO4)cc(OC)c1O` [Etoposide]: the Mean increment/day in assay [2] (etoposide 10 mg/kg p.o. daily, control 0.45) was -0.01 mm/day; in assay [1] (etoposide 10 mg/kg p.o. daily, control 0.67) it was 0.41 mm/day.

As for `CC(=O)O[C@H]1C(=O)[C@@]2(C)[C@H]([C@H](OC(=O)c3ccccc3)[C@]3(O)C[C@H](OC(=O)[C@H](O)[C@@H](NC(=O)c4ccccc4)c4ccccc4)C(C)=C1C3(C)C)[C@]1(OC(C)=O)CO[C@@H]1C[C@@H]2O` [Paclitaxel], the Mean increment/day in assay [2] (paclitaxel 1 mg/kg s.c. daily, control 0.67) was found to be 0.39 mm/day; in assay [2] (paclitaxel 2 mg/kg s.c. daily, control 0.67) it was 0.15 mm/day.

As to `C=C1/C(=C\C=C2/CCC[C@]3(C)[C@@H]([C@H](C)/C=C/C=C/C(O)(CC)CC)CC[C@@H]23)C[C@@H](O)C[C@@H]1O` [Seocalcitol], the Mean increment/day in assay [2] (seocalcitol 2 μg/kg p.o. daily, control 0.98) was 0.95 mm/day.

Consider `CO[C@@H]1[C@H](OC(=O)NC(=O)CCl)CC[C@]2(CO2)[C@H]1[C@@]1(C)O[C@@H]1CC=C(C)C` [TNP-470], for which the Mean increment/day came out at 0.51 mm/day in assay [2] (TNP-470 9 mg/kg s.c. daily, control 0.73) and 0.29 mm/day in assay [3] (TNP-470 9 mg/kg s.c. daily).

The values above are taken from patent US20030045515A1, “Combination medicament for treatment of neoplastic diseases” (priority 2001, published 2003).
